tested on: Leishmania major promastigotes; experiment: Anti-leishmanial assay (promastigote culture, 72 h, microscopic counting); assay type: cell-based; conditions: 72 h at 21-22° C., assays repeated thrice, read-out: Leishmanicidal Activity (IC50 in μM)

Question: How did the IC50 turn out when `C[C@]12CC[C@H]3[C@@H](C[C@@H](O)C4=CC(=O)CC[C@@]43O)[C@@H]1CC[C@@H]2O` [Compound 4, 6β,10β,17β-Trihydroxy-19-nor-4-androsten-3-one] was run?
Answer: Its IC50 is 70.9 µM.

Question: For `C[C@]12[C@H](O)C[C@H]3[C@@H](CCC4=CC(=O)CC[C@@]43O)[C@@H]1CC[C@@H]2O` [Compound 2, 10β,12β,17β-Trihydroxy-19-nor-4-androsten-3-one], which IC50 is on record?
Answer: The IC50 was over 100 µM.

Question: How did the IC50 turn out when `C[C@]12CC[C@H]3[C@@H](CCC4=CC(=O)CC[C@@H]43)[C@@H]1C[C@H](O)[C@@H]2O` [Compound 8, 16β,17β-Dihydroxy-19-nor-4-androsten-3-one] was run?
Answer: Its IC50 is 29.6 µM.

Question: How did the IC50 turn out when `C[C@]12CC[C@H]3[C@@H](CCC4=CC(=O)CC[C@@]43O)[C@@H]1CC[C@@H]2O` [Compound 5, 10β,17β-Dihydroxy-19-nor-4-androsten-3-one] was run?
Answer: The IC50 was 54.9 µM.

Question: `C[C@]12CC[C@H]3[C@@H](CCC4=CC(=O)CC[C@@]43O)[C@@H]1C[C@@H](O)[C@@H]2O` [Compound 3, 10β,16α,17β-Trihydroxy-19-nor-4-androsten-3-one] was tested. Which IC50 did it give?
Answer: The IC50 was 77.4 µM.

Question: For `C[C@]12CC[C@H]3[C@@H](C[C@@H](O)C4=CC(=O)CC[C@@H]43)[C@@H]1CC[C@@H]2O` [Compound 6, 6β,17β-Dihydroxy-19-nor-4-androsten-3-one], which IC50 is on record?
Answer: The IC50 was 80.2 µM.

Question: Which IC50 does the source give for `C[C@]12CC[C@H]3[C@@H](CCC4=CC(=O)CC[C@@]43O)[C@@H]1CCC2=O` [Compound 7, 10β-Hydroxy-19-nor-4-androsten-3,17-dione] here?
Answer: The IC50 was 61.1 µM.

same assay, conditions: Leishmania major, 72 h, 72 h at 21-22° C., assays repeated thrice, read-out: Leishmanicidal Activity (IC50 in μM)

Question: Which IC50 does the source give for `N=C(N)c1ccc(OCCCCCOc2ccc(C(=N)N)cc2)cc1` [Pentamidine, reference compound] here?
Answer: The IC50 was 5.09 ± 0.09 µM.

Question: Which IC50 does the source give for `C[C@]12CC[C@H]3[C@@H](CCC4=CC(=O)CC[C@@H]43)[C@@H]1CC[C@@H]2O` [Compound 1, 17β-Hydroxy-19-nor-4-androsten-3-one, reference compound] here?
Answer: The IC50 was 29.6 to 80.2 µM.

Question: How did the IC50 turn out when `C[C@@H]1[C@H](O)[C@@H](C)/C=C/C=C/C=C/C=C/C=C/C=C/C=C/[C@H](O[C@@H]2O[C@H](C)[C@@H](O)[C@H](N)[C@@H]2O)C[C@@H]2O[C@](O)(C[C@@H](O)C[C@@H](O)[C@H](O)CC[C@@H](O)C[C@@H](O)CC(=O)O[C@H]1C)C[C@H](O)[C@H]2C(=O)O` [Amphotericin B, reference compound] was run?
Answer: The IC50 was 0.29 ± 0.05 µM.

same assay, conditions: Leishmania major, 72 h, 72 h at 21-22° C., read-out: IC50 against leishmaniasis (unit printed as M)

Question: `N=C(N)c1ccc(OCCCCCOc2ccc(C(=N)N)cc2)cc1` [Pentamidine, reference compound] was tested. Which IC50 did it give?
Answer: Its IC50 is 5.09 µM.

same assay, conditions: read-out: Leishmanicidal Activity (IC50 in μM), 72 h at 21-22° C., assays repeated thrice, listed as Nandrolone (1)

Question: `C[C@]12CC[C@H]3[C@@H](CCC4=CC(=O)CC[C@@H]43)[C@@H]1CC[C@@H]2O` [Compound 1, 17β-Hydroxy-19-nor-4-androsten-3-one, reference compound] was tested. Which IC50 did it give?
Answer: The IC50 was 32 µM.

— US9173888B1, “Treatment and inhibition of protozoal diseases with nandrolone and its derivatives” (priority 2014, dated 2015)
